Assay results published in patent publication US10851073B2, “Protein tyrosine phosphatase inhibitors and methods of use thereof” (Calico Life Sciences LLC, priority 2019, dated 2020).

Tests used:
[1] = tested on: B16F10 mouse melanoma cells; assay: B16F10 IFNγ-induced cellular growth inhibition assay; assay type: cell-based; details: B16-F10, with 0.5 ng/mL IFNγ, read-out: B16F10 GI IC50
In short: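 B16F10 cells grown in DMEM+10% FBS, with or without 0.5 ng/mL final mouse IFNγ, and dosed in triplicate at 100 μM to 0.001 μM final (0.1% DMSO). Confluence imaged every 6 h for 5 days; percent growth inhibition versus DMSO/with-IFNγ control taken once DMSO/no-IFNγ wells exceeded 95% confluence, giving IC50.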

[2] = molecular target: T1, His tagged full-length PTPN1 protein (Homo sapiens, UniProt P18031); assay: Mobility shift assay (MSA) used to determine potency of PTPN1 inhibitors; assay type: biochemical; details: enzyme 0.5 nM, substrate 2 μM
T1 construct: made in house
T1 sequence (P18031 with tags, fused parts or gaps): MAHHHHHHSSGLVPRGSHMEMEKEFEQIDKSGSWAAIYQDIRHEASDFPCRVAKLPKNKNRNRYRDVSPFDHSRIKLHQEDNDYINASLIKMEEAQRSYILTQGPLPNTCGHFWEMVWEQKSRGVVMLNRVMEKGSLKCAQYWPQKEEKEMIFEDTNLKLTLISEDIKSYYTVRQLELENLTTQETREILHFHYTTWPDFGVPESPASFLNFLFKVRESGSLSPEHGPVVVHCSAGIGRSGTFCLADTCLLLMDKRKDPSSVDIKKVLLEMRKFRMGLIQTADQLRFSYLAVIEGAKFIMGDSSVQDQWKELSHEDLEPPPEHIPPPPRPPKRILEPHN
In short: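 Full-length His-tagged human PTPN1 (0.5 nM) was preincubated 10 min at room temperature with compound (12-point, 1:3 dilution) in HEPES pH 7.5 buffer with EGTA, EDTA, Tween 20 and DTT. A 2 μM fluorescent phospho-insulin receptor peptide was then added for 10 min before quench. Mobility-shift % conversion gave % inhibition and IC50.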

[3] = molecular target: T2, His tagged PTPN2 (TC45) protein (Homo sapiens, UniProt P17706); assay: Mobility shift assay used to determine potency of PTPN2 inhibitors; assay type: biochemical; details: enzyme 0.5 nM, substrate 2 μM; read-out: PTPN2 MSA IC50
T2 construct: made in house
T2 sequence (P17706 with tags, fused parts or gaps isoform P17706-2): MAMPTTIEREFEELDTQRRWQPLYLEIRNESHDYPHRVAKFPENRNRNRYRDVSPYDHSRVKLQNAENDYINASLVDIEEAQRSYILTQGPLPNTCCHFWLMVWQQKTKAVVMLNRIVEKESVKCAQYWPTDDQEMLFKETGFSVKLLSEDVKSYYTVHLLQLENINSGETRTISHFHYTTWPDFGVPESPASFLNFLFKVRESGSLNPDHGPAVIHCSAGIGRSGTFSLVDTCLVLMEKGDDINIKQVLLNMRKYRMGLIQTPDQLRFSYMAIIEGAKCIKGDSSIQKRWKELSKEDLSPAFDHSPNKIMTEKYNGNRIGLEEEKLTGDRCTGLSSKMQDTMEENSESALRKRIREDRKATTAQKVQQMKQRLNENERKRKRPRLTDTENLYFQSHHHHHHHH
In short: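 Microfluidic mobility-shift read-out (488/530 nm) of dephosphorylation of an OG488-tagged phosphotyrosine insulin receptor peptide, 2 μM, over 10 min at room temperature, after 10 min compound preincubation with 0.5 nM enzyme. Buffer: 50 mM HEPES pH 7.5, EGTA, EDTA, Tween 20, DTT. IC50 derived from % inhibition over 12-point 1:3 series.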

Row | Compound | IC50 [1] [nM] | IC50 [2] [nM] | IC50 [3] [nM]
1 | O=C1CN(c2c(O)cc3c(c2F)C[C@@H](NCCC2CC2)CC3)S(=O)(=O)N1 (single isomer, unassigned) [Compound 134] | 1000 to 10000 | 10 to 100 | 10 to 100
2 | O=C1CN(c2c(O)cc3c(c2F)C[C@@H]([C@@H]2CCNC2)CC3)S(=O)(=O)N1 (single isomer, unassigned) [Compound 136, 5-{(7RS)-1-fluoro-3-hydroxy-7-[(3RS)-pyrrolidin-3-yl]-5,6,7,8-tetrahydronaphthalen-2-yl}-1λ^6,2,5-thiadiazolidine-1,1,3-trione] | > 100000 | 10 to 100 | 10 to 100
3 | O=C1CN(c2c(O)cc3c(c2F)C[C@@H]([C@@H]2CCN(S(=O)(=O)C4CC4)C2)CC3)S(=O)(=O)N1 (single isomer, unassigned) [Compound 137, 5-{(7RS)-7-[(3RS)-1-(cyclopropanesulfonyl)pyrrolidin-3-yl]-1-fluoro-3-hydroxy-5,6,7,8-tetrahydronaphthalen-2-yl}-1λ^6,2,5-thiadiazolidine-1,1,3-trione] | 10000 to 100000 | 1 to 10 | < 1
4 | O=C1CN(c2c(O)cc3c(c2F)C[C@@H]([C@H]2CCN(S(=O)(=O)C4CC4)C2)CC3)S(=O)(=O)N1 (single isomer, unassigned) [Compound 139, 5-{(7RS)-7-[(3SR)-1-(cyclopropanesulfonyl)pyrrolidin-3-yl]-1-fluoro-3-hydroxy-5,6,7,8-tetrahydronaphthalen-2-yl}-1λ^6,2,5-thiadiazolidine-1,1,3-trione] | 10000 to 100000 | 10 to 100 | 1 to 10
5 | CC(C)CCNC[C@H]1Cc2cc(O)c(N3CC(=O)NS3(=O)=O)c(F)c2C1 (single isomer, unassigned) [Compound 292] | 1000 to 10000 | 10 to 100 | 10 to 100
6 | CC(C)(CO)CCN[C@@H]1CCc2cc(O)c(N3CC(=O)NS3(=O)=O)c(F)c2C1 (single isomer, unassigned) [Compound 308] | < 1000 | 1 to 10 | 1 to 10
7 | CC(C)CCNC1CCc2cc(O)c(N3CC(=O)NS3(=O)=O)c(F)c2C1 (stereo not drawn) [Compound 102, 5-{1-fluoro-3-hydroxy-7-[(3-methylbutyl)amino]-5,6,7,8-tetrahydronaphthalen-2-yl}-1λ^6,2,5-thiadiazolidine-1,1,3-trione] | < 1000 | 1 to 10 | < 1
8 | COCCOC1CCc2cc(O)c(N3CC(=O)NS3(=O)=O)c(F)c2C1 (stereo not drawn) [Compound 106, 5-[1-fluoro-3-hydroxy-7-(2-methoxyethoxy)-5,6,7,8-tetrahydronaphthalen-2-yl]-1λ^6,2,5-thiadiazolidine-1,1,3-trione] | 10000 to 100000 | 10 to 100 | 10 to 100
9 | O=C1CN(c2c(O)cc3c(c2F)CC(OCC2CC2)CC3)S(=O)(=O)N1 (stereo not drawn) [Compound 107, 5-[7-(cyclopropylmethoxy)-1-fluoro-3-hydroxy-5,6,7,8-tetrahydronaphthalen-2-yl]-1λ^6,2,5-thiadiazolidine-1,1,3-trione] | 10000 to 100000 | 10 to 100 | 10 to 100
10 | O=C1CN(c2c(O)cc3c(c2F)CC(NCCC(F)(F)F)CC3)S(=O)(=O)N1 (stereo not drawn) [Compound 116, 5-{1-fluoro-3-hydroxy-7-[(3,3,3-trifluoropropyl)amino]-5,6,7,8-tetrahydronaphthalen-2-yl}-1λ^6,2,5-thiadiazolidine-1,1,3-trione] | 1000 to 10000 | 10 to 100 | 10 to 100
11 | O=C1CN(c2c(O)cc3c(c2F)CC(OCC2CC(F)(F)C2)CC3)S(=O)(=O)N1 (stereo not drawn) [Compound 119, 5-{7-[(3,3-difluorocyclobutyl)methoxy]-1-fluoro-3-hydroxy-5,6,7,8-tetrahydronaphthalen-2-yl}-1λ^6,2,5-thiadiazolidine-1,1,3-trione] | 1000 to 10000 | 1 to 10 | 1 to 10
12 | O=C1CN(c2c(O)cc3c(c2F)CC(NCCCC(F)(F)F)CC3)S(=O)(=O)N1 (stereo not drawn) [Compound 120, 5-{1-fluoro-3-hydroxy-7-[(4,4,4-trifluorobutyl)amino]-5,6,7,8-tetrahydronaphthalen-2-yl}-1λ^6,2,5-thiadiazolidine-1,1,3-trione] | < 1000 | 1 to 10 | 1 to 10
13 | COC(C)(C)CCNC1CCc2cc(O)c(N3CC(=O)NS3(=O)=O)c(F)c2C1 (stereo not drawn) [Compound 122, 5-{1-fluoro-3-hydroxy-7-[(3-methoxy-3-methylbutyl)amino]-5,6,7,8-tetrahydronaphthalen-2-yl}-1λ^6,2,5-thiadiazolidine-1,1,3-trione] | 1000 to 10000 | 10 to 100 | 1 to 10
14 | CC(C)(CCNC1CCc2cc(O)c(N3CC(=O)NS3(=O)=O)c(F)c2C1)C(F)(F)F (stereo not drawn) [Compound 123, 5-{1-fluoro-3-hydroxy-7-[(4,4,4-trifluoro-3,3-dimethylbutyl)amino]-5,6,7,8-tetrahydronaphthalen-2-yl}-1λ^6,2,5-thiadiazolidine-1,1,3-trione] | 1000 to 10000 | 1 to 10 | 1 to 10
15 | O=C1CN(c2c(O)cc3c(c2F)CC(NCCC2(C(F)(F)F)CC2)CC3)S(=O)(=O)N1 (stereo not drawn) [Compound 124, 5-[1-fluoro-3-hydroxy-7-({2-[1-(trifluoromethyl)cyclopropyl]ethyl}amino)-5,6,7,8-tetrahydronaphthalen-2-yl]-1λ^6,2,5-thiadiazolidine-1,1,3-trione] | < 1000 | 1 to 10 | 1 to 10
16 | O=C1CN(c2c(O)cc3c(c2F)CC(NCC(F)(F)c2ccccc2)CC3)S(=O)(=O)N1 (stereo not drawn) [Compound 125, 5-{7-[(2,2-difluoro-2-phenylethyl)amino]-1-fluoro-3-hydroxy-5,6,7,8-tetrahydronaphthalen-2-yl}-1λ^6,2,5-thiadiazolidine-1,1,3-trione] | 10000 to 100000 | 10 to 100 | 1 to 10
17 | O=C1CN(c2c(O)cc3c(c2F)CC(NCC(F)(F)CC2CC2)CC3)S(=O)(=O)N1 (stereo not drawn) [Compound 126, 5-{7-[(3-cyclopropyl-2,2-difluoropropyl)amino]-1-fluoro-3-hydroxy-5,6,7,8-tetrahydronaphthalen-2-yl}-1λ^6,2,5-thiadiazolidine-1,1,3-trione] | 1000 to 10000 | 1 to 10 | 1 to 10
18 | CC(C)(O)CCNC1CCc2cc(O)c(N3CC(=O)NS3(=O)=O)c(F)c2C1 (stereo not drawn) [Compound 127, 5-{1-fluoro-3-hydroxy-7-[(3-hydroxy-3-methylbutyl)amino]-5,6,7,8-tetrahydronaphthalen-2-yl}-1λ^6,2,5-thiadiazolidine-1,1,3-trione] | < 1000 | 1 to 10 | 1 to 10
19 | CC(C)CCN(C)C1CCc2cc(O)c(N3CC(=O)NS3(=O)=O)c(F)c2C1 (stereo not drawn) [Compound 128, 5-{1-fluoro-3-hydroxy-7-[methyl(3-methylbutyl)amino]-5,6,7,8-tetrahydronaphthalen-2-yl}-1λ^6,2,5-thiadiazolidine-1,1,3-trione] | 1000 to 10000 | 1 to 10 | 1 to 10
20 | CC(C)CCCNC1CCc2cc(O)c(N3CC(=O)NS3(=O)=O)c(F)c2C1 (stereo not drawn) [Compound 129, 5-{1-fluoro-3-hydroxy-7-[(4-methylpentyl)amino]-5,6,7,8-tetrahydronaphthalen-2-yl}-1λ^6,2,5-thiadiazolidine-1,1,3-trione] | < 1000 | 1 to 10 | 1 to 10
21 | O=C1CN(c2c(O)cc3c(c2F)CC(NCCC(O)(C(F)(F)F)C(F)(F)F)CC3)S(=O)(=O)N1 (stereo not drawn) [Compound 130, 5-(1-fluoro-3-hydroxy-7-{[4,4,4-trifluoro-3-hydroxy-3-(trifluoromethyl)butyl]amino}-5,6,7,8-tetrahydronaphthalen-2-yl)-1λ^6,2,5-thiadiazolidine-1,1,3-trione] | 1000 to 10000 | 1 to 10 | 1 to 10
